In patent publication US12350259B2, “Methods of treating migraine” (Allergan Pharmaceuticals International Limited, priority 2021, dated 2025):
Like-named read-outs stand apart in the source and are kept apart here.

Tests used:
[1] = Atogepant-itraconazole interaction study: safety and tolerability; type: in vivo, human; conditions: itraconazole alone
Description: The primary objective of this study was to assess the effects of multiple dose itraconazole on the pharmacokinetics of a single dose of atogepant. The primary endpoints were PK parameters of atogepant derived from plasma concentrations. The secondary objectives of the study were to assess the safety and tolerability of atogepant and itraconazole given alone and in combination, and to establish the correlation between concentrations of atogepant in dried blood sample (DBS) (obtained via finger stick) and plasma. The secondary endpoints included AEs, clinical laboratory parameters, vital signs, ECG, and physical examination, and correlation of concentrations of atogepant in DBS and plasma. Subjects who satisfied the inclusion and exclusion criteria were assigned to a single fixed-treatment sequence in which they received Treatment A followed by Treatment B; there was a 7-day washout period between treatments. • Treatment A: Single oral 60 mg dose of atogepant (tablet) under fasted conditions on Day 1 • Treatment B • Days 8-14: Itraconazole 200 mg (tablet) orally once daily under fed conditions. • Day 15: Itraconazole 200 mg coadministered with atogepant 60 mg (tablet) under fasted conditions. • Days 16 to 17: Itraconazole 200 mg (tablet) once daily under fed conditions.

[2] = Atogepant-quinidine gluconate interaction study: safety; type: in vivo, human; conditions: during quinidine gluconate administration; 33 enrolled
Description: Atogepant PK parameters calculated were peak plasma concentration (Cmax); time to Cmax (tmax); and area under plasma concentration—time curve from time 0 to time t (AUC0-t) and infinity (AUC0-∞). […] Safety assessments included clinical laboratory values, vital signs, electrocardiograms, and […] adverse events (TEAEs).

[3] = topiramate; cited from earlier work
[4] = Atogepant-topiramate interaction study: safety and tolerability; type: in vivo, human
[5] = Atogepant-topiramate interaction study, cohort 2: topiramate steady-state PK; type: in vivo, human; conditions: for AUC / Cmax: both sexes, human, plasma
Procedure: An open-label, single-center, multiple-dose 2-cohort, phase 1 trial was carried out to assess the potential of a PK DDI between atogepant and topiramate in healthy adult participants. Eligible participants were enrolled either in cohort 1 to evaluate the effect of topiramate 100 mg twice daily on the PK of atogepant […] once daily or in cohort 2 to evaluate the effect of atogepant 60 mg once daily on the PK of topiramate 100 mg twice daily. Participants in cohort 1 received atogepant alone on days 1-7 and atogepant plus topiramate on days 8-17. Participants in cohort 2 received topiramate alone on days 1-10 and topiramate plus atogepant on days 11-17.
The duration of the study was 25 days (±2 days), which included day −1 through the follow-up visit and excluded the screening period. The screening period was up to 21 days before day 1 and the intervention period was a total of 19 days, at which point the end of dosing visit was conducted. Cerebrospinal fluid (CSF) samples for measurement of atogepant concentration were collected via lumbar puncture in a subset of consenting participants in cohort 1. CSF samples were collected once from individual participants in the CSF collection subset at 2 or 6 hours after the morning dose on day 6 for cohort 1. Clinical laboratory tests were performed at the follow-up visit, which was conducted on day 24 (7 [±2] days after the last dose of study medication.
Participants were excluded if they had clinically significant abnormal electrocardiogram (ECG) results or QT prolongation (QTcF ≥450 msec for males, ≥470 for females), or any clinical condition or previous surgery that may affect the absorption, distribution, biotransformation, or excretion of atogepant or topiramate.
The primary endpoints were area under the plasma concentration-time curve during dosing interval at steady state (AUC0-tau,ss) and maximum plasma drug concentration at steady state (Cmax,ss) of atogepant and topiramate when coadministered and when administered alone. Additional PK parameters included time of maximum plasma drug concentration at steady state (Tmax,ss), average plasma drug concentration at steady state (Cavg,ss), and minimum plasma drug concentration at steady state (Cmin,ss) of topiramate and atogepant when coadministered and when administered alone.

[6] = topiramate 100 mg BID + atogepant 60 mg QD, day 17
[7] = topiramate 100 mg BID alone, day 10
[8] = with atogepant coadministration

CCC(C)n1ncn(-c2ccc(N3CCN(c4ccc(OCC5COC(Cn6cncn6)(c6ccc(Cl)cc6Cl)O5)cc4)CC3)cc2)c1=O (stereo not drawn) [itraconazole, reference compound]
subjects experiencing constipation (TEAE) [1]: 1 subject | subjects experiencing headache (TEAE) [1]: 2 subjects

C=C[C@H]1C[N@@]2CC[C@H]1C[C@@H]2[C@@H](O)c1ccnc2ccc(OC)cc12 [quinidine gluconate, reference compound]
participants discontinued because of TEAEs (all electrocardiogram QT prolongation) [2]: 10

CC1(C)O[C@@H]2[C@@H](CO[C@@]3(COS(N)(=O)=O)OC(C)(C)O[C@@H]23)O1 [topiramate]
elimination half-life [3]: approximately 21 hours | Deaths, % ([4]; cohort 2, topiramate + atogepant (n = 24)): (0) % | Deaths, % ([4]; cohort 2, topiramate alone (n = 25)): (0) % | TEAEs leading to discontinuation, % ([4]; human, in vivo): (8.0) % | TESAEs, % ([4]; human, in vivo): (0) % | Treatment-related TEAEs, % ([4]; human, in vivo): (52.0) % | Treatment-related TESAEs, % ([4]; human, in vivo): (0) % | constipation reported ([4]; human, in vivo): 2 participants | nausea reported ([4]; human, in vivo): 3 participants | TEAEs, % ([4]; human, in vivo, 10 days): (64.0) % | AUC ([5]; 100 mg, Topiramate Alone, read-out: AUC0-tau,ss Geometric LSM): 74400 ng·h/mL | Cmax ([5]; 100 mg, Topiramate Alone, read-out: Cmax,ss Geometric LSM): 7500 ng/mL | AUC ([5]; 100 mg, topiramate 100 mg BID alone, day 10, read-out: AUC0-tau,ss): 76500 ng·h/mL | Cmax ([5]; 100 mg, topiramate 100 mg BID alone, day 10, read-out: Cmax,ss): 7700 ng/mL | AUC ([5]; Topiramate and Atogepant, read-out: AUC0-tau,ss Geometric LSM): 70300 ng·h/mL | Cmax ([5]; Topiramate and Atogepant, read-out: Cmax,ss Geometric LSM): 7000 ng/mL | AUC ([5]; topiramate 100 mg BID + atogepant 60 mg QD, day 17, read-out: AUC0-tau,ss): 72600 ng·h/mL | Cmax ([5]; topiramate 100 mg BID + atogepant 60 mg QD, day 17, read-out: Cmax,ss): 7300 ng/mL | delay of median Tmax,ss of topiramate ([5]; coadministered with atogepant): 0.5 h | Cavg,ss [5, 6]: 6000 ng/mL | Cmin,ss [5, 6]: 4700 ng/mL | Tmax,ss (median) [5, 6]: 2.0 h | Cavg,ss [5, 7]: 6400 ng/mL | Cmin,ss [5, 7]: 5200 ng/mL | Tmax,ss (median) [5, 7]: 1.5 h | reduction of topiramate AUC0-tau,ss [5, 8]: 5% | reduction of topiramate Cmax,ss [5, 8]: 6%
